Reference: US9814720B2, “Compositions and methods of inhibiting IL-17 expression of neutrophils” (priority 2014, dated 2017)

Tests used:
IL-17RC [1] = assay: IL-17RC gene expression by qPCR in IL-6/23-stimulated human neutrophils; type: cell-based; conditions: IL-6/23 1 h, FIG. 6B
Procedure: Neutrophils were isolated from peripheral blood of healthy donors. Peripheral blood was incubated in 3% Dextran, and neutrophils isolated by Ficoll gradient centrifugation (Fisher Scientific), with neutrophil purity determined by staining with Wright-Giemsa.
(§1) Murine or human neutrophils were suspended at a density of 10^6 cells/ml and incubated with […] of recombinant mouse or human IL-6 and 2 μg/ml IL-23 in RPMI, and the cells were maintained for 1-3 h at 37° C. in 5% CO2. Various inhibitors were used for assessing STAT3 activation. For STAT3, neutrophils were treated with either the STAT3-SH2 inhibitor, Stattic (20 μM) obtained from Tocris, or the JAK-1, 2 inhibitor, INC424, (aka Ruxolitinib; 20 μM (Selleck BioChem)). For the determination of RORγt-dependent signaling, SR1001 (20 μM; Sigma) was used, which inhibits RORγt binding to the IL-17 promoter site. All inhibitors were added to neutrophils 2 h prior to recombinant IL-6 and IL-23 stimulation.
(§2) Neutrophil and corneal cell RNA was extracted using the RNeasy mini kit according to the manufacturer's directions (Qiagen, Valencia, Calif.). The quality of RNA was checked by spectrophotometry, and only samples with a 260/280 ratio of 2.0 were used to generate cDNA. The SuperScript First Strand synthesis system (Invitrogen) was used to generate cDNA according to the manufacturer's directions.
(§3) The SYBR green system (Applied Biosystems, Carlsbad, Calif.) was utilized for quantitative PCR (qPCR) using ABI Biosystems. PCR products were then run on a 1% agarose gel, and visualized using ethidium bromide. PCR products were compared to Actb (encoding the β-actin gene) or GAPDH as the controls for gel loading.

IL-17RC [2] = assay: IL-17RC gene expression by qPCR in IL-6/23-stimulated murine neutrophils; type: cell-based; conditions: IL-6/23 1 h, FIG. 6A
Excerpt: Total bone marrow-derived cells were isolated from mouse femurs and tibias by flushing with RPMI and an 18-gauge needle. Erythrocytes were lysed with 1× lysis buffer (eBioscience), and bone marrow cells were separated on a Percoll (Fisher) gradient by density centrifugation (52%, 69%, and 78%). Cells at the 69-78% interface were harvested, and neutrophil purity (>98%) confirmed by flow cytometry and Wright-Giemsa staining.
as §1, §2, §3

A. fumigatus hyphae [3] = assay: In vitro fungal killing assay (hyphal coincubation) with murine neutrophils; type: cell-based, Aspergillus fumigatus; conditions: IL-6/23-stimulated, inhibitor 20 μM, FIG. 6D
Excerpt: (§4) Aspergillus strains—For cornea infections and in vitro fungal killing assays, an RFP expressing strain of A. fumigatus (Af-dsRed) was used. This strain is gpdA promoter driven to constitutively express monomeric dsRed. For subcutaneous “priming” injections, heat-killed, swollen conidia Aspergillus fumigatus strain Af-BP was used. For the Aspergillus hyphal extract used in ROS assay, A. fumigatus strain Af-BP hyphae were pulverized in liquid nitrogen, filtered through a 30 μm pre-separation filter (Miltenyi Biotec) and protein measured by the BCA method (Pierce). Aspergillus hyphal extracts (AspHE) were stored at −20° C. and used at a final concentration of 1 mg/ml.
(§5) A hyphal coincubation assay was used to study the ability of murine and human neutrophils to inhibit A. fumigatus hyphal growth as described. Briefly, 12,500 A. fumigatus dsRed expressing conidia (strain Af-dsRed) per 200 μl Sabouraud dextrose media were added to wells of black-walled 96 well plates with an optically clear bottom (CoStar 3720). After 6 h, the conidia had germinated and the hyphae became adherent to the wells, at which time the medium was removed.
(§6) Murine and human neutrophils were incubated with p-STAT3 (20 μM Stattic or 20 μM INC424) or RORγt inhibitors (20 μM SR1001) for 2 h. Then the cells were stimulated with […] of rIL-6 and 2 μg/ml of rIL-23 for 3 h, washed, and 2×10^5 bone marrow-derived murine neutrophils or 10^5 human peripheral blood neutrophils, with or without recombinant IL-17A, were added to each well with growing hyphae. RPMI media was used as positive control (unimpaired growth), and PBS was used as a negative control (no growth (data not shown)). After 16 h the wells were washed with PBS and the dsRed fungal mass was quantified in a 96-well fluorometer at 550/600 nm excitation/emission filter (Synergy HT, Biotek).

A. fumigatus hyphae [4] = assay: In vitro fungal killing assay (hyphal coincubation) with human neutrophils; type: cell-based, Aspergillus fumigatus; conditions: IL-6/23-stimulated, inhibitor 20 μM, FIG. 6F
Excerpt: as §4, §5, §6

IL-17A = IL-17A expression in IL-6/23-stimulated murine bone marrow neutrophils (qPCR, ELISA, intracellular flow cytometry); type: cell-based, C57BL/6 mice; conditions: discussion restatement, species not stated
Excerpt: Total bone marrow-derived cells were isolated from mouse femurs and tibias by flushing with RPMI and an 18-gauge needle. Erythrocytes were lysed with 1× lysis buffer (eBioscience), and bone marrow cells were separated on a Percoll (Fisher) gradient by density centrifugation (52%, 69%, and 78%). Cells at the 69-78% interface were harvested, and neutrophil purity (>98%) confirmed by flow cytometry and Wright-Giemsa staining. IL-17A protein production was quantified by 2-site ELISA, according to the manufacturer's directions (R&D Biosciences). Murine or human neutrophils were suspended at a density of 10^6 cells/ml and incubated with […] of recombinant mouse or human IL-6 and 2 μg/ml IL-23 in RPMI, and the cells were maintained for 1-3 h at 37° C. in 5% CO2. Various inhibitors were used for assessing STAT3 activation. […] For the determination of RORγt-dependent signaling, SR1001 (20 μM; Sigma) was used, which inhibits RORγt binding to the IL-17 promoter site. All inhibitors were added to neutrophils 2 h prior to recombinant IL-6 and IL-23 stimulation. […] Ten corneas were pooled and analyzed by intracellular flow cytometry. […] Cells were analyzed using a C6 Accuri flow cytometer (BD). […] The SYBR green system (Applied Biosystems, Carlsbad, Calif.) was utilized for quantitative PCR (qPCR) using ABI Biosystems. […]

[5] = system: human peripheral blood neutrophils; assay: ROS production (CFDA) by human peripheral blood neutrophils incubated with Aspergillus hyphae; type: cell-based; conditions: IL-6/23-stimulated, inhibitor 20 μM, FIG. 6E
Procedure: as §6
(§7) In vitro ROS production measured by CFDA was previously described. Briefly, 100 μg/100 μl of A. fumigatus hyphal extract (AspHE) were incubated with 2×10^5 murine or human neutrophils. Neutrophils were treated for 1 h with 1 μM Carboxyfluorescein diacetate (H2CFDA (Sigma)), which will fluoresce following ROS oxidation. Neutrophils were collected and analyzed by flow cytometry. H2CFDA pulsed neutrophils that had not been incubated with AspHE were used to set the ROS histogram gate. The average mean intensity was calculated by Accuri flow software and graphed in Prism.

[6] = system: bone marrow-derived murine neutrophils; assay: ROS production (CFDA) by murine bone marrow neutrophils incubated with Aspergillus hyphae; type: cell-based, C57BL/6 mice; conditions: IL-6/23-stimulated, inhibitor 20 μM, FIG. 6C
Procedure: as §6, §7

| Structure (SMILES) | IL-17RC expression (IL-17RC [1]) | IL-17RC expression (IL-17RC [2]) | hyphal killing activity (A. fumigatus hyphae [3]; plus rIL-17A) | hyphal growth (fluorescent fungal mass) (A. fumigatus hyphae [3]; without rIL-17A) | fluorescent fungal mass (A. fumigatus hyphae [4]; plus rhIL-17A) | fluorescent fungal mass (A. fumigatus hyphae [4]; without rhIL-17A) | IL-17 production in stimulated neutrophils (IL-17A) | ROS production ([5]; plus rhIL-17A) | ROS production ([5]; without rhIL-17A) | ROS production ([6]; plus rIL-17A) | ROS production ([6]; without rIL-17A) |
| --- | --- | --- | --- | --- | --- | --- | --- | --- | --- | --- | --- |
| N#CC[C@H](C1CCCC1)n1cc(-c2ncnc3[nH]ccc23)cn1 [INC424, Ruxolitinib] | did not inhibit | did not inhibit | – | – | – | – | – | – | – | – | – |
| CC(=O)Nc1nc(C)c(S(=O)(=O)Nc2ccc(C(O)(C(F)(F)F)C(F)(F)F)cc2)s1 [SR1001] | did not inhibit | did not inhibit | enhanced hyphal killing activity was detected | did not further impede hyphal growth | decreased fungal mass | no increase in ROS (FIG. 6E) or decrease in fluorescent fungal mass | ablated | increased ROS | no increase in ROS | ROS production was increased | not increased above the level produced by naïve neutrophils |
